Experiment [1] can be described thus: Inhibition of Plasmodium falciparum recombinant M17 leucyl aminopeptidase expressed in Escherichia coli assessed as conversion of L-leucine-7-amido-4-methylcoumarin hydrochloride to NHMec preincubated for 10 mins prior to substrate addition by Dixon plot analysis.
Experiment [2] is described as follows: Inhibition of Plasmodium falciparum recombinant M1 aminopeptidase expressed in Escherichia coli assessed as conversion of L-leucine-7-amido-4-methylcoumarin hydrochloride to NHMec preincubated for 10 mins prior to substrate addition by Dixon plot analysis.

In general, Ki refers to a measure of affinity in units of concentration, obtained from inhibition or displacement. As to `N=C(N)Nc1cccc(C(N)P(=O)(O)O)c1` (stereo unspecified), the Ki was 0.16 µM in experiment [1] and more than 1000 µM in experiment [2].
The corresponding values for `N=C(N)NCCCCC(N)P(=O)(O)O` (stereo unspecified) are 268 µM and 11 µM.
`NCCCC(N)P(=O)(O)O` (stereo unspecified): the inhibition constant (Ki) in experiment [1] and in experiment [2] was more than 1000 µM throughout.
On to `N=C(N)Nc1ccc(CC(N)P(=O)(O)O)cc1` (stereo unspecified), for which the inhibitory constant (Ki) in experiment [1] was 63 µM; in experiment [2], more than 1000 µM.
For the compound `N=C(N)Nc1ccc(C(N)P(=O)(O)O)cc1` (stereo unspecified), the results for the inhibitory constant (Ki) in experiment [1] and in experiment [2] were 1.8 µM and 127 µM, respectively.
The corresponding values for `NC(c1ccc(-n2cccn2)cc1)P(=O)(O)O` (stereo unspecified) are 0.011 µM and 104 µM.
Take `N=C(N)c1ccc(C(N)P(=O)(O)O)cc1` (stereo unspecified): the inhibitory constant (Ki) was more than 1000 µM in experiment [1] and 345 µM in experiment [2].
As for `NC(N)=NCCCC(N)P(=O)(O)O` (stereo unspecified), the Ki in experiment [1] was more than 1000 µM; in experiment [2], 193 µM.

Source of the values: ChEMBL document CHEMBL2384899, “Synthesis and structure-activity relationships of phosphonic arginine mimetics as inhibitors of the M1 and M17 aminopeptidases from Plasmodium falciparum” (J Med Chem, 2013).
